# Assay results published in ChEMBL document CHEMBL1138457, “Design and synthesis of an orally bioavailable and selective peptide epoxyketone proteasome inhibitor (PR-047)” (J Med Chem, 2009).
# Key:
# [1] = Cytotoxicity against human MESSA cells assessed as cell viability after 72 hrs by CellTiter-Glo luminescent assay; assay type: functional, cell-based; conditions: MES-SA
# [2] = Inhibition of chymotrypsin-like activity of 20S proteasome in human MOLT4 cells after 1 hr by […]; assay type: cell-based; conditions: MOLT-4, 1 h
# [3] = Inhibition of chymotrypsin-like activity of human 20S proteasome by spectrofluorimetry
# [4] = Cytotoxicity against multidrug resistance transporter expressing doxorubicin resistant human MESSA cells assessed as cell viability after 72 hrs by CellTiter-Glo luminescent assay; assay type: functional, cell-based; conditions: MES-SA
# [5] = Metabolic stability in human liver microsomes assessed as extraction ratio at 1 uM; assay type: ADME, Microsome
# [6] = Metabolic stability in mouse liver microsomes assessed as extraction ratio at 1 uM; assay type: ADME, Microsome
# Mus musculus [7] = test: Inhibition of chymotrypsin-like activity of 20S proteasome in BALB/c mouse adrenal gland at 20 mg/kg, po after 1 hr; assay type: functional; design: scale not given: the % may be the effect or the level left
# [8] = Chemical stability in simulated intestinal fluid assessed as compound remaining at 4 uM after 15 mins; assay type: physicochemical; conditions: read-out: Stability
# [9] = Inhibition of chymotrypsin-like activity of human 20S proteasome beta 5 subunit by proteasome active site ELISA
# [10] = biological target: T1, Proteasome subunit beta type-8 (Homo sapiens, UniProt P28062)
# T1 sequence (P28062 whole entry): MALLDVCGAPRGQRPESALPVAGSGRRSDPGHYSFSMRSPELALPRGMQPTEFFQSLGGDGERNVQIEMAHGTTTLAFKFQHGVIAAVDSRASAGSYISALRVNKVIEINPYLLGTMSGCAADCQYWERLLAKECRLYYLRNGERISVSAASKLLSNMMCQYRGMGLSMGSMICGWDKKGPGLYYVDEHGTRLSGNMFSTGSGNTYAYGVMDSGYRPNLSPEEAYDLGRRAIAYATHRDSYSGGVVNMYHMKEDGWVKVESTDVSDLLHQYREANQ
# Description: Inhibition of chymotrypsin-like activity of LMP7 immunoproteasome by proteasome active site ELISA
# Mus musculus [11] = test: Inhibition of chymotrypsin-like activity of 20S proteasome in BALB/c mouse adrenal gland at 10 mg/kg, po after 1 hr; assay type: functional; design: scale not given: the % may be the effect or the level left
# [12] = Solubility in ethanol-PS80 citrate buffer at pH 3.5 by HPLC analysis; assay type: physicochemical
# Mus musculus [13] = test: Inhibition of chymotrypsin-like activity of 20S proteasome in BALB/c mouse adrenal gland 40 mg/kg, po after 1 hr; assay type: functional; design: scale not given: the % may be the effect or the level left
# Homo sapiens = species: Homo sapiens; test: Ratio of Kinact to Ki for chymotrypsin-like activity of human 26S proteasome by spectrophotometry; design: unit not given here
SMILES,IC50 [3] [nM],hepatic extraction ratio at 1 µM [5] [dimensionless ratio],hepatic extraction ratio at 1 µM [6] [dimensionless ratio],"remaining at 0.25 h, 4 µM [8] [%]",IC50 [9] [nM],IC50 [10] [nM],solubility [12] [µg/mL],Ratio (Homo sapiens),IC50 [1] [nM],IC50 [2] [nM],IC50 [4] [nM],Activity (Mus musculus [7]) [%],Activity (Mus musculus [11]) [%],Activity (Mus musculus [13]) [%]
COC[C@H](NC(=O)c1cc(OC)no1)C(=O)N[C@@H](COC)C(=O)N[C@@H](Cc1ccccc1)C(=O)[C@@]1(C)CO1,50,0.64,0.54,100,14,36,,,12,10,269,,19,
CC(C)C[C@H](NC(=O)c1cc(Cn2cncn2)on1)C(=O)N[C@@H](Cc1ccccc1)C(=O)N[C@@H](CC(C)C)C(=O)[C@@]1(C)CO1,13,,,,,,≥ 1000,,35,62,> 1000,,,105
COC[C@H](NC(=O)c1cc(C)on1)C(=O)N[C@H](C(=O)N[C@@H](CC(C)C)C(=O)[C@@]1(C)CO1)C(C)C,44,0.63,0.79,95,,,,,57,147,636,12,,
Cc1cc(C(=O)N[C@@H](CC(C)C)C(=O)N[C@@H](Cc2ccccc2)C(=O)N[C@@H](CC(C)C)C(=O)[C@@]2(C)CO2)no1,1.8,,,60,,,60,50900,28,17,47,,,
Cc1cc(C(=O)N[C@@H](Cc2cscn2)C(=O)N[C@@H](Cc2ccccc2)C(=O)N[C@@H](CC(C)C)C(=O)[C@@]2(C)CO2)no1,6.7,,,20,,,,,15,56,77,,63,
CC(C)C[C@H](NC(=O)[C@H](Cc1ccccc1)NC(=O)c1cnccn1)B(O)O [BORTEZOMIB],,,,,8.7,,,,,,,,,
COC[C@H](NC(=O)c1cc(C)on1)C(=O)N[C@@H](COC)C(=O)N[C@@H](Cc1ccccc1)C(=O)[C@@]1(C)CO1,24,0.59,0.59,90,11,21,,,17,35,155,,43,
COC[C@H](NC(=O)c1cc(C)on1)C(=O)N[C@@H](Cc1cscn1)C(=O)N[C@@H](CC(C)C)C(=O)[C@@]1(C)CO1,16,0.85,0.86,100,,,,,17,25,367,39,,
COC[C@H](NC(=O)c1cc(C)on1)C(=O)N[C@@H](Cc1ccsc1)C(=O)N[C@@H](CC(C)C)C(=O)[C@@]1(C)CO1,9.2,0.87,0.95,90,,,,,25,46,181,117,,

# More lines, main results first:
IC50 [3] [nM],hepatic extraction ratio at 1 µM [5] [dimensionless ratio],hepatic extraction ratio at 1 µM [6] [dimensionless ratio],"remaining at 0.25 h, 4 µM [8] [%]",IC50 [9] [nM],IC50 [10] [nM],solubility [12] [µg/mL],Ratio (Homo sapiens),SMILES,IC50 [1] [nM],IC50 [2] [nM],IC50 [4] [nM],Activity (Mus musculus [7]) [%],Activity (Mus musculus [11]) [%],Activity (Mus musculus [13]) [%]
20,0.83,0.45,90,,,,,COC[C@H](NC(=O)c1cc(C)on1)C(=O)N[C@@H](CC(C)C)C(=O)N[C@@H](CC(C)C)C(=O)[C@@]1(C)CO1,45,41,366,37,,
43,0.16,0.39,90,48,607,,,COC[C@H](NC(=O)c1ccon1)C(=O)N[C@@H](COC)C(=O)N[C@@H](CC(C)C)C(=O)[C@@]1(C)CO1,37,168,260,,14,
13,0.94,0.96,75,,,,,COC[C@H](NC(=O)c1cc(C)on1)C(=O)N[C@@H](CC1CCCCC1)C(=O)N[C@@H](CC(C)C)C(=O)[C@@]1(C)CO1,210,78,353,56,,
11,0.4,0.37,35,23,22,,,COC[C@H](NC(=O)c1cc(OC)no1)C(=O)N[C@@H](COC)C(=O)N[C@@H](CC(C)C)C(=O)[C@@]1(C)CO1,12,32,82,,21,
73,0.42,0.49,85,44,93,,,COC[C@H](NC(=O)c1ccon1)C(=O)N[C@@H](COC)C(=O)N[C@@H](Cc1ccccc1)C(=O)[C@@]1(C)CO1,43,47,756,,34,
19,0.28,0.48,100,,,1240,,COC[C@H](NC(=O)c1cc(C)on1)C(=O)N[C@@H](C)C(=O)N[C@@H](CC(C)C)C(=O)[C@@]1(C)CO1,28,57,276,8,,
3.1,0.69,0.69,70,9.3,41,,,CCOc1cc(C(=O)N[C@@H](COC)C(=O)N[C@@H](COC)C(=O)N[C@@H](CC(C)C)C(=O)[C@@]2(C)CO2)no1,5.4,35,66,,4,
94,,,40,,,≥ 1000,,CC(C)C[C@H](NC(=O)c1cc(CN2CCN(C)CC2)on1)C(=O)N[C@@H](Cc1ccccc1)C(=O)N[C@@H](CC(C)C)C(=O)[C@@]1(C)CO1,189,124,> 1000,,,101
4.1,,,60,,,1480,28300,CC(C)C[C@H](NC(=O)c1cc(CN2CCOCC2)on1)C(=O)N[C@@H](Cc1ccccc1)C(=O)N[C@@H](CC(C)C)C(=O)[C@@]1(C)CO1,22,11,70,,,29
15,,,,,,≥ 1000,,CC(C)C[C@H](NC(=O)c1cc(Cn2ccnc2)on1)C(=O)N[C@@H](Cc1ccccc1)C(=O)N[C@@H](CC(C)C)C(=O)[C@@]1(C)CO1,52,59,> 1000,,,110
